According to patent publication US10688087B2, “Pharmaceutical compositions and therapeutic methods employing a combination of a manganese complex compound and a non-manganese complex form of the compound” (PLEDPHARMA AB, priority 2009, dated 2020):

Experiments:
[1] = rats, i.v.; for effect on 0-24 h Zn excretion: 10 μmol/kg MnDPDP alone, with 20 μmol/kg b.w. DPDP, or 10 μmol/kg b.w. DPDP, n=2
Method: 10 male Wistar rats (approximately 250 g) were injected intravenously, via one of the tail veins, with either 0, 0.125, 0.250, 0.500 or 0.750 ml of a 10 mM DPDP formulation, corresponding to 0, 5, 10, 20 and 30 μmol/kg b.w. […] After injection, the rats were immediately placed in metabolic cages for urine collection over a period of 0-24 hours. The urine samples were then stored at −80° C. until Zn and Mn analyses. Before analyses, the samples were thawed and extensively shaken to obtain homogenous samples. A five ml aliquot was taken from each sample and 5 ml concentrated nitric acid was added. The samples were then resolved in a microwave oven and thereafter diluted with distilled water to a final volume of 50 ml. The zinc (Zn) and manganese (Mn) content of each sample were analyzed by ICP-MS. Results are presented as total 0-24 h urine Zn and Mn content (expressed as μmol/kg b.w.±S.E.M.).

[2] = Literature pharmacokinetics of i.v. MnDPDP (Toft et al., 1997): manganese release, urine Mn and Zn, metabolism; format: in vivo; conditions: humans, 10 μmol/kg b.w., rough recalculation of data of Toft et al.
[3] = rats, i.v.
Method: After injection, the rats were immediately placed in metabolic cages for urine collection over a period of 0-24 hours. To obtain basal content of manganese (Mn) in urine, two additional (control) rats were placed in metabolic cages for urine collection over the same period of time. The urine samples were then stored at −80° C. until Mn analysis. Before analysis, the samples were thawed and extensively shaken to obtain homogenous samples. A five ml aliquot was taken from each sample and 5 ml concentrated nitric acid was added. The samples were then resolved in a microwave oven and thereafter diluted with distilled water to a final volume of 50 ml. The Mn content of each sample was analyzed by ICP-MS (Inductively Coupled Plasma Mass Spectrometry). […] This sample was treated in an identical manner to that of the urine samples and analyzed for its Mn content. Results are presented as total 0-24 h urine Mn content (expressed as μmol/kg±S.E.M.) and as percentage (±S.E.M.) of the injected dose. The statistical difference between animals receiving MnDPDP alone and animals receiving MnDPDP and DPDP, with respect to excretion of manganese into the urine, was tested by an unpaired Student's t-test. A p-value lower than 0.05 was considered as a statistically significant difference.

[4] = rat, in vivo, ip
Method: Twenty-four hours later, the rats were killed and the brains were dissected out and stored at −80° C. until Mn analysis. […] Before analysis, each brain was resolved in 5 ml concentrated nitric acid plus 3 ml distilled water in a microwave oven, and thereafter diluted with distilled water to a final volume of 50 ml. The Mn and Zn content of each sample was analyzed by ICP-MS. Results are expressed as μg/g brain wet weight±S.E.M and percentage increase in Mn brain content. […] A p-value lower than 0.05 was considered as a statistically significant difference.

white blood cells [5] = conditions: mice, 10 mg/kg b.w. MnDPDP (Alexandre et al., 2006); cited from earlier work
[6] = i.v., 10 μmol/kg b.w.; humans (Toft et al.) and rats (Hustvedt et al.); cited from earlier work
white blood cells [7] = experiment: Paclitaxel-induced myelosuppression (leucopenia) in mice, blood cell counts (Example 5); format: in vivo, BALB/c female mice; conditions: i.p., paclitaxel 20 mg/kg b.w. on days 0, 2, 4, blood day 10
Method: To test the therapeutic efficacy, initial experiments were conducted in BALB/c female mice (15-20 g), as described by Alexandre et al., JNCI 2006; 98:236-244).
Five mice were treated in each group. Paclitaxel was administered on days 0, 2, and 4. […] Ten days after the first injection the mice were anesthetized and blood samples were withdrawn by heart puncture into EDTA-tubes and blood cell counting (including white blood cell count (WBC); absolute neutrophil (ANC), monocyte and lymphocyte count) was conducted on a CELL-DYN Sapphire analyzer, after the blood samples had been diluted 1:1. Some samples had to be discarded because of clotting but all groups included at least blood from 3 animals.

Row | Compound | effect of increasing doses of DPDP on 0-24 h Mn excretion ([1]; 0-30 μmol/kg b.w. DPDP) | effect on 0-24 h Zn excretion [1] | 0-24 h Zn excretion (saturation level) ([1]; at a dose of 10 μmol/kg b.w. DPDP) | renal zinc excretion [2] | amount of manganese released from the complex ([3]; as exemplified by Example 1) [%] | Mn excretion in urine during 0-24 h as percentage of the injected dose ([3]; 0.25 ml 10 mM MnDPDP ± 0.5 ml 10 mM DPDP, mean±S.E.M., n=7) [%] | Zn brain content [4] | percentage increase in brain Mn [4] [%] | amount of zinc in the urine up to 24 hours ([1]; 10 μmol/kg b.w. MnDPDP) | protection against paclitaxel-induced leucopenia (white blood cells [5]) | manganese originating from the chelator that comes out in the urine [6] [%] | reduction of the various white blood cells (white blood cells [7]) [%]
1 | Cc1ncc(COP(=O)(O)O)c(CN(CCN(CC(=O)O)Cc2c(COP(=O)(O)O)cnc(C)c2O)CC(=O)O)c1O [DPDP, N,N′-bis-(pyridoxal-5-phosphate)-ethylenediamine-N,N′-diacetic acid] | just minor effects | doubles the zinc excretion | around 4 μmol/kg |  |  |  |  |  |  |  |  | 
2 | Cc1ncc(COP(=O)(O)O)c(CN(CCN(CC(=O)O)Cc2c(COP(=O)(O)O)cnc(C)c2O)CC(=O)O)c1O.[Mn] [MnDPDP, Manganese N,N′-bis-(pyridoxal-5-phosphate)-ethylenediamine-N,N′-diacetic acid] |  | relatively small effect |  | approximately 3 μmol/kg b.w. | 85 | 15.7±1.1 | identical | 23.5 | about 2 μmol/kg b.w. | effectively protect | ≤ 20 | 
3 | CC(=O)O[C@H]1C(=O)[C@@]2(C)[C@H]([C@H](OC(=O)c3ccccc3)[C@]3(O)C[C@H](OC(=O)[C@H](O)[C@@H](NC(=O)c4ccccc4)c4ccccc4)C(C)=C1C3(C)C)[C@]1(OC(C)=O)CO[C@@H]1C[C@@H]2O [Paclitaxel, paclitaxel] |  |  |  |  |  |  |  |  |  |  |  | ~50
